Key:
[1] = system: w794 DNA, 5'-AATTA high affinity site; experiment: Relative rate of DNA alkylation at the w794 5'-AATTA high affinity site; assay type: biochemical, SV40; settings: 25° C.
Protocol: Rate of DNA Alkylation. The relative rates of DNA alkylation for the natural enantiommers of CCBI-TMI (35) and CCBI-indole2 (37) versus those of the corresponding CBI and MCBI agents were measured at the single high affinity site in w794, 5'-AATTA. The relative rates earlier studies of DNA alkylation for MCBI-TMI, CBI-TMI, and duocarmycin SA were determined to be quite similar at 4° C., 1.8:1.0:0.9, respectively. […] In prior studies, we have highlighted similar observations with agents that span a much larger range of relative reactivities.
The DNA alkylation selectivity and efficiency of the natural enantiomers of 304-307 were compared with that of 1 in w794 DNA. […] These trends in the overall efficiency of DNA alkylation parallel the relative trends in cytotoxic potency.
(§1) DNA Alkylation Relative Rate of (+)-CCBI-TMI (35), (+)-CBI-TMI, and (+)-MCBI-TMI. Following the procedure detailed above, Eppendorf tubes containing 5' end-labeled w794 DNA (9 μL) in TE buffer (pH 7.5) were treated with (+)-CCBI-TMI (35), (+)-CBI-TMI, or (+)-MCBI-TMI (1 μL, 10^-6 M in DMSO). The solutions were mixed and incubated at 25° C. for 2, 4, 6, 9, 12, 15, and 24 h, respectively. Subsequent isolation of the alkylated DNA by EtOH precipitation, resuspension in TE buffer (10 μL, pH 7.5), thermolysis (30 min, 100° C.), PAGE, and autoradiography were conducted as detailed above. Relative rates for alkylation at the w794 high-affinity 5'-AATTA site were derived from the slopes of the plots of percent integrated optical density (IOD) of the high-affinity alkylation cleavage bands versus time.
as §1, with “(+)-CCBI-indole2 (37), (+)-CBI-indole2,” for “(+)-CCBI-TMI (35), (+)-CBI-TMI,”, “(+)-MCBI-indole2.” for “(+)-MCBI-TMI.”, “(+)-CCBI-indole2 (37), (+)-CBI-indole2, and (+)-MCBI-indole2” for “(+)-CCBI-TMI (35), (+)-CBI-TMI, or (+)-MCBI-TMI”

w794 duplex DNA = experiment: DNA alkylation selectivity and efficiency within w794 DNA, thermally-induced strand cleavage and PAGE; assay type: biochemical, SV40; settings: for DNA alkylation less efficient than 1 or 305: natural enantiomers, 25° C., 24 h
Source text: DNA Alkylation Selectivity and Efficiency. The DNA alkylation properties of the agents were examined within w794 duplex DNA, a 144 base-pair segment of duplex DNA for which comparative results are available for related agents. The alkylation site identification and the assessment of the relative selectivity among the available sites were obtained by thermally-induced strand cleavage of the singly 5' end-labeled duplex DNA after exposure to the agents. Following treatment of the end-labeled duplex DNA with a range of agent concentrations, the unbound agent was removed by EtOH precipitation of the DNA. Redissolution of the DNA in aqueous buffer, thermolysis (100° C., 30 min) to induce strand cleavage at the sites of DNA alkylation, denaturing high resolution polyacrylamide gel electrophoresis (PAGE) adjacent to Sanger dideoxynucleotide sequencing standards, and autoradiography led to identification of the DNA cleavage and alkylation sites. The DNA alkylation reaction selectivities observed under the incubation conditions for the agents detailed herein have proven identical to the alkylation selectivities observed with shorter or extended reaction periods or when the reactions were conducted at different temperatures (37 or 4° C., 0.5-7 d). As discussed below, the rates and efficiencies but not final relative efficiencies of DNA alkylation were altered by changing the reaction temperatures.
DNA Alkylation Properties. […] The DNA alkylation reaction was examined within w794 DNA for which comparative results are available for past agents. The alkylation site identification was obtained by thermal strand cleavage of the singly 5' end-labeled duplex DNA after exposure to the agents. Following treatment of the labeled DNA with a range of agent concentrations, the unbound agent was removed by EtOH precipitation of the DNA. Redissolution of the DNA in aqueous buffer, thermolysis at 100° C. (30 min) to induce depurination and strand cleavage at the adenine N3 or guanine N3 minor groove alkylation sites, denaturing high resolution PAGE adjacent to Sanger sequencing standards and autoradiography provided the DNA cleavage and alkylation sites.
DNA Alkylation Studies: selectivity and Efficiency. General procedures, the preparation of singly ^32 P 5' end-labeled double stranded DNA, the agent binding studies, gel electrophoresis, and autoradiography were conducted according to standard procedures. Eppendorf tubes containing the 5' end-labeled DNA (9 μL) in TE buffer (10 mM Tris, 1 mM EDTA, pH 7.5) were treated with the agent in DMSO (1 μL at the specified concentration). The solution was mixed by vortexing and brief centrifugation and subsequently incubated at 4 or 25° C. for 24 h (natural enantiomers) and 25 or 37° C. (unnatural enantiomers) for 72 h. The covalently modified DNA was separated from unbound agent by EtOH precipitation and resuspended in TE buffer (10 μL). The solution of DNA in an Eppendorf tube sealed with parafilm was warmed at 100° C. for 30 min to induce cleavage at the alkylation sites, allowed to cool to 25° C. and centrifuged. Formamide dye (0.03% xylene cyanol FF, 0.03% bromophenol blue, 8.7% Na2 EDTA 250 mM) was added (5 μL) to the supernatant. Prior to electrophoresis, the sample was denatured by warming at 100° C. for 5 min, placed in an icebath, and centrifuged, and the supernatant (3 μL) was loaded directly onto the gel. Sanger dideoxynucleotide sequencing reactions were run as standards adjacent to the reaction samples. Polyacrylamide gel electrophoresis (PAGE) was run on an 8% sequencing gel under denaturing conditions (8 M urea) in TBE buffer (100 mM Tris, 100 mM boric acid, 0.2 mM Na2 EDTA) followed by autoradiography.
DNA Alkylation of w794 DNA. Eppendorf tubes containing the 5'-end labeled DNA (9 μL) in TE buffer (10 mM Tris, 1 mM EDTA, pH 7.2) were treated with the agent in DMSO (1 μL at the specified concentration). […]

[2] = In vitro cytotoxic activity (cell line not given); assay type: cell-based; settings: for less potent than ent-(-)-1: unnatural enantiomers
L1210 = experiment: In vitro cytotoxic activity, L1210; settings: N-BOC derivatives
[3] = Aqueous solvolysis reactivity followed by UV; assay type: physicochemical
Protocol: The reactivity of 217-219 was assessed by following the solvolysis spectrophotometrically by UV at both pH 3 (50% CH3 OH-buffer, buffer=4:1:20 (v/v/v) 0.1 M citric acid, 0.2 M Na2 HPO4, H2 O) and pH 7 (1:1 H2 O--CH3 OH) measuring both the disappearance of the long-wavelength absorption band of the F2 CBI chromophore and the appearance of a short-wavelength absorption band attributable to the ring open products (FIG. 31).
Aqueous Solvolysis Reactivity. pH 3: N-BOC-CCBI (25, 100 μg) was dissolved in CH3 OH (1.5 mL) and mixed with pH 3 aqueous buffer (1.5 mL). The buffer contained 4:1:20 (v:v:v) 0.1 M citric acid, 0.2 M Na2 HPO4 and H2 O, respectively. The solvolysis solution was sealed and kept at 25° C. protected from light. The UV spectrum was measured at regular intervals every 2 h during the first day, every 12 h for another week, and every 24 h for an additional week. The decrease in the long-wavelength absorption at 322 nm and the increase in the short-wavelength absorption at 268 nm were monitored, FIG. 1.
pH 2: Samples of 25 (100 μg) and 26 (50 μg) were dissolved in CH3 OH (1.5 mL) and the solutions were mixed with aqueous buffer (pH 2.05, 1.5 mL). The buffer contained 4:1:20 (v:v:v) 1.0 M citric acid, 0.2 M Na2 HPO4, and H2 O, respectively. Immediately after mixing, the UV spectra of the solutions were measured against a reference solution containing CH3 OH (1.5 mL) and the aqueous buffer (1.5 mL) and these readings were used for the initial absorbance values. The solutions were stoppered, protected from the light, and allowed to stand at 25° C. UV spectra were recorded at regular intervals until constant values were obtained for the long and short wavelength absorbances. The solvolysis rate constants were determined from the slope of the lines obtained from linear least squares treatment of plots of ln[(Af -Ai)/(Af -A)] versus time using the short wavelength measurements for 25 and long wavelength measurements for 26).

COc1ccc2c(c1)C13CC1CN(C(=O)c1cc4cc(NC(=O)c5cc6ccccc6[nH]5)ccc4[nH]1)C3=CC2=O (single isomer, unassigned) [MCBI-indole2]
relative rate of DNA alkylation, indole2 series [1]: 1.4 ×

N#Cc1ccc2c(c1)C13CC1CN(C(=O)c1cc4cc(NC(=O)c5cc6ccccc6[nH]5)ccc4[nH]1)C3=CC2=O (single isomer, unassigned) [compound 37]
DNA alkylation more efficient than MCBI or CBI based agents (w794 duplex DNA): 1.5-2 ×
DNA alkylation sequence selectivity (w794 duplex DNA): stronger preference for the fourth base to be A or T but that preference extended to include a fifth 5' A or T base
relative rate of DNA alkylation, indole2 series [1]: 2.5 ×

COC(=O)c1cc2c([nH]1)C(=O)C=C1N(C(=O)c3cc4ccccc4[nH]3)CC3CC123 (single isomer, unassigned) [compound 304]
reduction in cytotoxic potency relative to duocarmycin SA ([2]; natural enantiomers): 6.5 -fold
less potent than ent-(-)-1 [2]: 13-18 ×
DNA alkylation less efficient than 1 or 305 (w794 duplex DNA): 20 ×

COC(=O)c1cc2c([nH]1)C(=O)C=C1N(C(=O)c3cc4ccc(OC)cc4[nH]3)CC3CC123 (single isomer, unassigned) [compound 306]
cytotoxic activity relative to duocarmycin SA or 304 (words) [2]: intermediate activity
properties relative to duocarmycin SA or 304 [2]: properties more analogous to 304
less potent than ent-(-)-1 [2]: 13-18 ×
DNA alkylation less efficient than 1 or 305 (w794 duplex DNA): 5-10 ×

COC(=O)c1cc2c([nH]1)C(=O)C=C1N(C(=O)c3cc4cccc(OC)c4[nH]3)CC3CC123 (single isomer, unassigned) [compound 307]
cytotoxic activity relative to duocarmycin SA or 304 (words) [2]: equipotent with (+)-304
properties relative to duocarmycin SA or 304 [2]: properties more analogous to 304
less potent than ent-(-)-1 [2]: 13-18 ×
DNA alkylation less efficient than 1 or 305 (w794 duplex DNA): 5-10 ×

COC(=O)c1cc2c([nH]1)C(=O)C=C1N(C(=O)c3cc4cc(OC)ccc4[nH]3)CC3CC123 (single isomer, unassigned) [ent-(-)-305]
cytotoxic activity relative to duocarmycin SA or 304 (words) [2]: more closely approached the full activity of ent-(-)-1

CC(C)(C)OC(=O)N1CC2CC23C1=CC(=O)c1ccccc13 (stereo not drawn) [N-BOC-CBI, reference compound]
relative cytotoxic potency of natural versus unnatural enantiomers (L1210): 11 ×
concentration at which both enantiomers alkylate DNA (w794 duplex DNA; FIG. 24, 37° C., 48 h): 10^-2 M
solvolysis stability/reactivity [3]: stable
half-life ([3]; 50% ch3oh-buffer, pH 3): 133 h
solvolysis rate constant k ([3]; pH 3, 50% CH3OH-buffer): 1.45e-06 s⁻¹

COc1cc2cc(C(=O)N3CC4CC45C3=CC(=O)c3ccc(C#N)cc35)[nH]c2c(OC)c1OC (stereo not drawn) [compound 35]
DNA alkylation more efficient than MCBI or CBI based agents (w794 duplex DNA): 1.5-2 ×
DNA alkylation sequence selectivity (w794 duplex DNA): strong preference but not absolute requirement for the fourth 5' base to be A or T versus G or C
relative rate of DNA alkylation, TMI series ([1]; 10^-6 M): 2.5 ×

From patent US6060608A, “Analogs of CC-1065 and the duocarmycins” (The Scripps Research Institute, priority 1999, dated 2000)
